Laboratory results reported in patent US8785692B2, “Substituted phenylamidines and the use thereof as fungicides” (priority 2007, dated 2014).
Where two headings read alike, the source gives them in different places.

Key:
[1] = logP (neutral / acidic, pH 2.3)
Sphaerotheca fuliginea = assay: Sphaerotheca test (cucumber) / protective; format: in vivo; conditions: Podosphaera fuliginea, 168 h, read-out: efficacy
Method: Sphaerotheca Test (Cucumber)/Protective
Solvent: 49 parts by weight of N,N-dimethylformamide
Emulsifier: 1 part by weight of alkylaryl polyglycol ether
To produce a suitable preparation of active compound, 1 part by weight of active compound is mixed with the stated amounts of solvent and emulsifier, and the concentrate is diluted with water to the desired concentration.
To test for protective activity, young cucumber plants are sprayed with the active compound preparation at the stated application rate. 1 day after the treatment, the plants are inoculated with a spore suspension of Sphaerotheca fuliginea. The plants are then placed in a greenhouse at 70% relative atmospheric humidity and a temperature of 23° C.
Evaluation is carried out 7 days after the inoculation. 0% means an efficacy which corresponds to that of the control, whereas an efficacy of 100% means that no infection is observed.

[2] = cucumber, protective, 500 ppm active compound, evaluation 7 days after inoculation

Compound	logP [1]	logP ([1]; pH 2.3)	pest or weed control at 500 ppm (Sphaerotheca fuliginea) [%]	pest or weed control at 500 ppm (Sphaerotheca fuliginea; [2]) [%]	logP acidic ([1]; acidic)	logP neutral ([1]; neutral)
CCN(C)C=Nc1cc(C)c(/C(C)=N/OCC=C(C)C)cc1C [Compound 33, N′-(2,5-dimethyl-4-{(1E)-N-[(3-methylbut-2-en-1-yl)oxy]ethanimidoyl}phenyl)-N-ethyl-N-methylimidoformamide]	4.86	2.24	≥ 70			
CCN(C)C=Nc1cc(C)c(/C=N/OCC2CC2)cc1C [Compound 47, N′-(4-{(E)-[(cyclopropylmethoxy)imino]methyl}-2,5-dimethylphenyl)-N-ethyl-N-methylimidoformamide]	3.95	1.67				
CCN(C)C=Nc1cc(C)c(/C(C)=N/OCOCCOC)cc1C [Compound 18, N′-{2,5-dimethyl-4-[(1E)-1-methyl-3,5,8-trioxa-2-azanon-1-en-1-yl]phenyl}-N-ethyl-N-methylimidoformamide]	3.05	1.43				
C#CC(C)O/N=C(\C)c1cc(C)c(N=CN(C)CC)cc1C (stereo not drawn) [Compound 15, N′-(2,5-dimethyl-4-{(1E)-N-[(1-methylprop-2-yn-1-yl)oxy]ethanimidoyl}phenyl)-N-ethyl-N-methylimidoformamide]	4	1.8		≥ 70		
Cc1cc(C=NOCc2ccccc2)c(C)cc1N [4-(Benzyloxyiminomethyl)-2,5-dimethylaniline]		4.22				
CCN(C)C=Nc1cc(C)c(/C(C)=N/OC2CCCC2)cc1C [Compound 14, N′-{4-[(1E)-N-(cyclopentyloxy)ethanimidoyl]-2,5-dimethylphenyl}-N-ethyl-N-methylimidoformamide]	5.24	2.2		≥ 70		
Cc1cc(C=O)c(C)cc1N [4-Amino-2,5-dimethylbenzaldehyde]		1.34				
CCN(C)C=Nc1cc(C)c(/C=N/OC(C)(C)C)cc1C [Compound 39, N′-{4-[(E)-(tert-butoxyimino)methyl]-2,5-dimethylphenyl}-N-ethyl-N-methylimidoformamide]	4.98	2.11	≥ 70			
CCN(C)C=Nc1cc(C)c(/C(C)=N/CCCC(C)(C)C)cc1C [Compound 46, N′-{4-[(1E)-N-(4,4-dimethylpentyl)ethanimidoyl]-2,5-dimethylphenyl}-N-ethyl-N-methylimido-formamide]	4.75	1.79				
CCN(C)C=Nc1cc(C)c(/C(C)=N/OCC(C)C)cc1C [Compound 13, N-ethyl-N′-{4-[(1E)-N-isobutoxyethanimidoyl]-2,5-dimethylphenyl}-N-methylimidoformamide]	4.98	2.22				
CCN(C)C=Nc1cc(C)c(/C(C)=N/Nc2ccccc2F)cc1C [Compound 45, N-ethyl-N′-(4-{(1E)-1-[2-(2-fluorophenyl)hydrazinylidene]ethyl}-2,5-dimethylphenyl)-N-methylimidoformamide]		1.91				
C=CCO/N=C(\C)c1cc(C)c(N=CN(C)CC)cc1C [Compound 35, N′-{4-[(1E)-N-(allyloxy)ethanimidoyl]-2,5-dimethylphenyl}-N-ethyl-N-methylimidoformamide]	4.02	1.72				
CCN(C)C=Nc1cc(C)c(/C(C)=N/OCc2nc(-c3ccccc3)cs2)cc1C [Compound 21, N′-(2,5-dimethyl-4-{(1E)-N-[(4-phenyl-1,3-thiazol-2-yl)meth-oxy]ethanimidoyl}phenyl)-N-ethyl-N-methylimidoformamide]	5.1	2.3		≥ 70		
CCN(C)C=Nc1cc(C)c(/C(C)=N/OC/C=C/c2ccccc2)cc1C [Compound 19, N′-{2,5-dimethyl-4-[(1E)-N-{[(2E)-3-phenylprop-2-en-1-yl]oxy}ethanimidoyl]phenyl}-N-ethyl-N-methylimidoformamide]	5.2	2.32				
CCN(C)C=Nc1cc(C)c(/C(C)=N/OCC(F)(F)F)cc1C [Compound 17, N′-{2,5-dimethyl-4-[(1E)-N-(2,2,2-trifluoroethoxy)ethanimidoyl]phenyl}-N-ethyl-N-methylimidoformamide]	4.24	1.88		≥ 70		
CC#CCO/N=C(\C)c1cc(C)c(N=CN(C)CC)cc1C [Compound 16, N′-{4-[(1E)-N-(but-2-yn-1-yloxy)ethanimidoyl]-2,5-dimethylphenyl}-N-ethyl-N-methylimidoformamide]	3.91	1.72	≥ 70			
CCN(C)C=Nc1cc(C)c(/C(C)=N/OCc2ccc(Cl)nc2)cc1C [Compound 32, N′-(4-{(1E)-N-[(6-chloropyridin-3-yl)methoxy]ethanimidoyl}-2,5-dimethylphenyl)-N-ethyl-N-methylimidoformamide]	3.95	1.67		≥ 70		

Compound	logP [1]	logP ([1]; pH 2.3)	pest or weed control at 500 ppm (Sphaerotheca fuliginea) [%]	pest or weed control at 500 ppm (Sphaerotheca fuliginea; [2]) [%]	logP acidic ([1]; acidic)	logP neutral ([1]; neutral)
CCN(C)C=Nc1cc(C)c(/C(C)=N/OC)cc1C [Compound 24, N-ethyl-N′-{4-[(1E)-N-methoxyethanimidoyl]-2,5-dimethylphenyl}-N-methylimidoformamide]	3.33	1.38				
CCN(C)C=Nc1cc(C)c(/C=N/OCc2ccc3c(c2)OCOC3)cc1C [Compound 4, N′-(4-{(E)-[(4H-1,3-benzodioxin-7-ylmethoxy)imino]methyl}-2,5-dimethylphenyl)-N-ethyl-N-methylimidoformamide]	4.71	2.02				
CCCO/N=C(\C)c1cc(C)c(N=CN(C)CC)cc1C [Compound 37, N′-{4-[(1E)-N-(n-propoxy)ethanimidoyl]-2,5-dimethylphenyl}-N-ethyl-N-methylimidoformamide]	4.43	1.9		≥ 70		
CCN(C)C=Nc1cc(C)c(/C(C)=N/OC(C)(C)C)cc1C [Compound 9, N-ethyl-N′-{4-[(1E)-N-tert-butoxyethanimidoyl]-2,5-dimethylphenyl}-N-methylimidoformamide]	5.17	2.19				
CCN(C)C=Nc1cc(C)c(/C(C)=N/OCc2ccc(C(C)(C)C)cc2)cc1C [Compound 12, N′-(4-{(1E)-N-[(4-tert-butylbenzyl)oxy]ethanimidoyl}-2,5-dimethylphenyl)-N-ethyl-N-methylimidoformamide]	6.26	3.05		≥ 70		
CCO/N=C(\C)c1cc(C)c(N=CN(C)CC)cc1C [Compound 23, N-ethyl-N′-{4-[(1E)—N-ethoxyethanimidoyl]-2,5-dimethylphenyl}-N-methylimidoformamide]	3.86	1.6				
CCN(C)C=Nc1cc(C)c(/C(C)=N/OCc2c(Cl)cccc2Cl)cc1C [Compound 29, N′-(4-{(1E)-N-[(2,6-dichlorobenzyl)oxy]ethanimidoyl}-2,5-dimethylphenyl)-N-ethyl-N-methylimidoformamide]	5.51	3.75		≥ 70		
CCN(C)C=Nc1cc(C)c(/C(C)=N/OCc2cccc(Oc3ccccc3)c2)cc1C [Compound 22, N′-(2,5-dimethyl-4-{(1E)-N-[(3-phenoxybenzyl)oxy]ethanimidoyl}phenyl)-N-ethyl-N-methylimidoformamide]	5.77	2.69		≥ 70		
CCN(C)C=Nc1cc(C)c(/C(C)=N/OCc2ccc(Cl)c(Cl)c2)cc1C [Compound 30, N′-(4-{(1E)-N-[(3,4-dichlorobenzyl)oxy]-ethanimidoyl}-2,5-dimethylphenyl)-N-ethyl-N-methylimidoformamide]	5.79	2.71	≥ 70			
CCN(C)C=Nc1cc(C)c(/C(C)=N/Oc2ccccc2)cc1C [Compound 11, N′-{2,5-dimethyl-4-[(1E)-N-phenoxyethanimidoyl]-phenyl}-N-ethyl-N-methylimidoformamide]		2.21		≥ 70		
CCN(C)C=Nc1cc(C)c(/C(C)=N/OCCOc2cccc(C(F)(F)F)c2)cc1C [Compound 34, N′-{2,5-dimethyl-4-[(1E)-N-{2-[3-(trifluoromethyl)phenoxy]ethoxy}ethan-imidoyl]phenyl}-N-ethyl-N-methylimidoformamide]	5.28	2.59		≥ 70		
N-(2,5-dimethyl-4-{(E)-[1-phenylethoxy]ethanimidoyl}phenyl)-N-ethyl-N-methylimidoformamide [Compound 27]					2.39	5.09
CCN(C)C=Nc1cc(C)c(/C(C)=N/OC(C)c2ccc(Cl)cc2)cc1C (stereo not drawn) [Compound 38, N′-(4-{(1E)-N-[1-(4-chlorophenyl)ethoxy]ethanimidoyl}-2,5-dimethylphenyl)-N-ethyl-N-methylimidoformamide]	5.67	2.46				
CCN(C)C=Nc1cc(C)c(/C(C)=N/OC(C)C)cc1C [Compound 10, N-ethyl-N′-{4-[(1E)-N-isopropoxyethanimidoyl]-2,5-dimethylphenyl}-N-methylimidoformamide]	4.42	1.92				
CCN(C)C=Nc1cc(C)c(/C(C)=N/OCC[Si](C)(C)C)cc1C [Compound 44, N′-(2,5-dimethyl-4-{(1E)-N-[2-(trimethylsilyl)ethoxy]ethanimidoyl}phenyl)-N-ethyl-N-methylimidoformamide]	6.21	2.76				
CCN(C)C=Nc1cc(C)c(/C=N/OCCC(C)(C)C)cc1C [Compound 48, N′-(4-{(E)-[(3,3-dimethylbutoxy)imino]methyl}-2,5-dimethylphenyl)-N-ethyl-N-methylimidoformamide]	5.89	2.3				
Cc1cc(C=NOC(C)C)c(C)cc1N [4-(Isopropoxyiminomethyl)-2,5-dimethylaniline]		2.77				
